Experiment [1] deals with T1, NS3/NS4A-2 (full-length HCV NS3 protease complexed with NS4A-2) (Hepatitis C virus genotype 1a, UniProt P27958).
T1 construct: Recombinant E. coli or Baculovirus full-length NS3; host or cells: E. coli or baculovirus (insect cells)
In words: NS3 inhibition assay (NS3-NS4 protease assay). The class given is biochemical. As to conditions: recombinant full-length NS3/NS4A-2, RETS1 substrate, kinetic fluorescence read; read-out: NS3-NS4 IC50. Put shortly: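 Full-length NS3 (E. coli-expressed at 2 nM or baculovirus-expressed at 3 nM) precomplexed with excess NS4A-2 peptide and preincubated with compound (top concentration 50 μM) for 10 min at room temperature. RETS1 substrate added; fluorescence read kinetically for 30 min (ex 335/em 495 nm). IC50 converted to Ki using Km 2.03 μM (E. coli) or 1.74 μM (baculovirus).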

Experiment [2] deals with HCV sub-genomic replicon (1377/NS3-3') in HuH-7 hepatoma cells (GS4.3). In words: Quantitation by ELISA of NPTII in the HCV sub-genomic replicon, GS4.3. In kind it is cell-based, hepatitis C virus (HCV). As to conditions: Hepatitis C virus, Huh-7; GS4.3 cells, 72 h incubation, NPTII ELISA; read-out: Replicon EC50. The gist of the method:
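GS4.3 cells (HuH-7 carrying HCV 1377/NS3-3′ replicon) treated 72 h at 37 °C with compound at 3-fold dilutions from 10 μM to 56 pM final, 1% DMSO, without G418. NPTII in lysates quantified by ELISA (450 nm). Signal expressed as percent of DMSO control; EC50 by 4-parameter fit.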
(In general: An ELISA detects its analyte on a solid surface through an enzyme-linked reagent.)

Each structure is given as a SMILES string.

T1 sequence (P27958 1027-1657, one chain of several): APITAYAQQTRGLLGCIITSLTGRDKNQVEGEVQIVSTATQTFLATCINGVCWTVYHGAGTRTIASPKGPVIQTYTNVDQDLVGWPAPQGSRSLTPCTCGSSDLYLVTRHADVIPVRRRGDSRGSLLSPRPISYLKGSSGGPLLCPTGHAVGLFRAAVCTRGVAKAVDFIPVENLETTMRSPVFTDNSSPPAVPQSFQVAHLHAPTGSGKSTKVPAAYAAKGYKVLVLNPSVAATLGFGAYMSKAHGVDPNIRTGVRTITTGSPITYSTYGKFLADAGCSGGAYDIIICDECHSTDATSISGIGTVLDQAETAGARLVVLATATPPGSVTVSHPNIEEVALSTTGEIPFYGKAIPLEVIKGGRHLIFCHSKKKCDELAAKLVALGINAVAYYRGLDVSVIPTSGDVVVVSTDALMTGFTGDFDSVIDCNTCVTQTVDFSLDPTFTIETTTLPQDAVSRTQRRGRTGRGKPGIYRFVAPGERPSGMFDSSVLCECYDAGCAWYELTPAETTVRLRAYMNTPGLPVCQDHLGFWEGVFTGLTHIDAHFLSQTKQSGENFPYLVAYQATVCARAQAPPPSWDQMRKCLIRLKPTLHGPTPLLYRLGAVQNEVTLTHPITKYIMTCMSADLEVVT

By IC50 is commonly meant the concentration that inhibits the measured activity by half. What is called EC50 is the concentration needed to bring the measured effect to its halfway point. Regarding `CC[C@@H]1C[C@]1(NC(=O)[C@@H]1C[C@@H](OC(=O)N2Cc3cccc(F)c3C2)CN1C(=O)[C@@H](Nc1cccc(C)c1)C(C)C)C(=O)NS(=O)(=O)C1CC1` [Compound 49, [(3R,5S)-5-((1R,2R)-1-(cyclopropylsulfonylcarbamoyl)-2-ethylcyclopropylcarbamoyl)-1-((S)-3-methyl-2-(m-tolylamino)butanoyl)pyrrolidin-3-yl]4-fluoroisoindoline-2-carboxylate], the half-maximal inhibitory concentration (IC50) in experiment [1] was less than 100 nM. For the same molecule, in experiment [2], the concentration giving a half-maximal response (EC50) fell in the range of 100 to 1000 nM.
Turning to `CC[C@@H]1C[C@]1(NC(=O)[C@@H]1C[C@@H](OC(=O)N2Cc3cccc(F)c3C2)CN1C(=O)[C@@H](Nc1cccc(C(C)(C)C#N)c1)C(C)C)C(=O)NS(=O)(=O)C1CC1` [Compound 53, [(3R,5S)-1-((S)-2-(3-(2-cyanopropan-2-yl)phenylamino)-3-methylbutanoyl)-5-((1R,2R)-1-(cyclopropylsulfonylcarbamoyl)-2-ethylcyclopropylcarbamoyl)-pyrrolidin-3-yl]4-fluoroisoindoline-2-carboxylate], the IC50 in experiment [1] was less than 100 nM. Moreover, the EC50 in experiment [2] is less than 100 nM.

The record behind these values is patent US7932277B2, “Peptide inhibitors of hepatitis C virus replication” (InterMune, Inc., priority 2007, dated 2011).
